Test results from US20190292516A1, “METHOD FOR IMPROVING PRODUCT TITER IN A CELL AND A CELL MEDIA FOR IMPROVING THE SAME” (VALITACELL LIMITED, priority 2018, published 2019).

Tests used:
Assay type in all cases: cell-based, Chinese Hamster
[1] = tested on: CHO-S stable clone producing an anti-Her2 like IgG1 antibody; test: Deep well shaking plate culture with chemical enhancer added at Day 0 or Day 3; cell growth, viability and titer
Method: The Applicant uses a platform consisting of screening Chinese Hamster Ovary (CHO) cell clone leads grown in a deep well plate coated with media containing 3TAA. The cells are measured for increased growth and productivity (titer) to determine whether 3TAA, and other enhancer chemicals, have offered the optimum cell culture environment, and can improve the growth and/or productivity of promising lead clones, which otherwise, grown in sub-optimal conditions, would not have been selected. To establish optimum concentration for the best titer boost, high throughput experimentation was performed in 96 deep well plates (Greiner Bio-One, Gloucestershire, United Kingdom). The cell line used was a CHO-S stable clone producing an anti-Her2 like IgG1 antibody. Cells were cultured in CD CHO medium (Thermo Fisher Scientific, Paisley, UK), supplemented with 8 mM L-glutamine, 1% HT supplement and 12.5 ug/ml puromycin selection marker (Thermo Fisher Scientific, Paisley, UK). Cells grown in these plates were incubated at 320 rpm (25 mm throw), 37° C., 5% CO2 and 85% humidity. The plates were covered with vented lids and secured using clamps (“System Duetz”; Enzyscreen B.V., Heemstede, Netherlands). Cells were seeded at 0.2×10^6 cells ml^−1 with a seeding volume of 450 μL (unless specified otherwise). Chemical enhancer molecules, including 3TAA, were trialled at 4 to 10 different concentrations at Day 0 in culture. Subsequently, a subset of concentrations was carried forward for delayed addition at Day 3 of culture. Day 3 was chosen based on the cell growth profile in deep well plates. Cells were cultured for 5 days before culture attributes (cell growth and titer) were recorded, unless otherwise stated. Cell growth was measured using the PrestoBlue® Assay (ThermoFisher Scientific), viability was verified using the Vi-cell™ cell viability analyser (Beckmann Coulter, High Wycombe, UK), and titer was measured using the Valita™TITER assay (Valitacell, Dublin, Ireland).

[2] = Batch shake flask culture supplemented with 3TAA; conditions: Chinese hamster, CHO-S stable clone producing an anti-Her2 like IgG1 antibody, Day 0 addition
Method: (§1) Shake flask cultures were performed in vented Erlenmeyer flasks with a 30 ml working culture volume. Cells were seeded at 0.2×10^6 cells ml^−1. 3TAA was added at 2.5 mM (optimum concentrations from deep well plate culture) on Day 0. Growth and titer were monitored daily. Total RNA and histone extracts were collected from Day 5 of culture. Cell cycle and apoptosis analysis were performed on Day 4 and Day 5 post seeding respectively.

[3] = tested on: CHO-S stable clone producing an anti-Her2 like IgG1 antibody; test: Batch shake flask culture supplemented with 3TAA; conditions: 2.5 mM, Day 0 addition, 10 days
Method: as §1

[4] = tested on: CHO-S stable clone producing an anti-Her2 like IgG1 antibody; test: Cell cycle analysis by propidium iodide staining and flow cytometry; conditions: 3TAA 2.5 mM added Day 0, shake flask, analysed Day 4
Method: as §1
1×10^6 cells were extracted from culture and fixed in 4% paraformaldehyde (Alfa Aesar; Thermo Fisher Scientific). The cells were then stained with propidium iodide using the FxCycle™ PI/RNase Staining Solution (Thermo Fisher Scientific). Cell cycle analysis was performed on the Attune Acoustic Focusing Cytometer (Thermo Fisher Scientific).

[5] = tested on: CHO-S stable clone producing an anti-Her2 like IgG1 antibody; test: Apoptosis analysis of 3TAA supplemented shake flask cultures; conditions: 3TAA 2.5 mM added Day 0, shake flask, analysed Day 5
Method: as §1

[6] = 3TAA 2.5 mM, Day 0 addition, deep well plate

## O=C(O)Cc1ccsc1 [3TAA, 3-Thiopheneacetic acid]
[1]; 2.5 mM, Day 0 addition
  reduction in IVCD: 25%
  titer boost: 160%
[1]; 2.5 mM, Day 3 addition
  reduction in IVCD: 20%
  titer boost: 177%
[1]; 4 mM, Day 0 addition
  reduction in IVCD: 50%
  titer boost: 17%
[1]; 4 mM, Day 3 addition
  reduction in IVCD: 25%
  titer boost: 125%
[1]; [6]
  cell growth reduction: 25%
  titer boost: 1.59 fold
[1]; delayed addition at exponential phase (Day 3), concentration not given
  titer boost: 2.6 fold
[2]
  decrease in peak viable cell density at 10 days, 2.5 mM: 30%
[3]
  culture viability in comparison to vehicle and no addition controls: remained unaffected
  increase in total volumetric titer: 1.9 fold
[4]
  increase in accumulation in the G1 phase: 11%
[5]
  initiation of apoptotic pathways: Apoptotic pathways were not initiated
